Read-outs that look alike come from different tables or passages of the source.
Assays:
hCA I = hCA I (Homo sapiens, UniProt P00915); experiment: stopped flow CO2 hydrase assay, hCA I; format: biochemical
hCA II = hCA II (Homo sapiens, UniProt P00918); experiment: stopped flow CO2 hydrase assay, hCA II; format: biochemical
hCA XII = hCA XII (Homo sapiens, UniProt O43570); experiment: stopped flow CO2 hydrase assay, hCA XII; format: biochemical; conditions: for Selectivity ratio I/XII: KI hCA I / KI hCA XII; for Selectivity ratio II/XII: KI hCA II / KI hCA XII
Chain of hCA XII (O43570 25-354): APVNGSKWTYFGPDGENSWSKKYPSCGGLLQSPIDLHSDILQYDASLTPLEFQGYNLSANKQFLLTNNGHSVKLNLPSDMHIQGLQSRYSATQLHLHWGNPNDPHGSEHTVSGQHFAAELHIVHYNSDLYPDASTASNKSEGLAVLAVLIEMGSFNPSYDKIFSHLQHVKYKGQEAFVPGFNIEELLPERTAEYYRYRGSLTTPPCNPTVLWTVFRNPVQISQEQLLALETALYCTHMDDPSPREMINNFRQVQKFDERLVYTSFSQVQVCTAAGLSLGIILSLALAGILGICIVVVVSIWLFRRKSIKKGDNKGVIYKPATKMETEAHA

hCA IX = hCA IX (Homo sapiens, UniProt Q16790); experiment: biochemical; conditions: for Selectivity ratio I/IX: KI hCA I / KI hCA IX; for Selectivity ratio II/IX: KI hCA II / KI hCA IX
A549 lung cancer cells = experiment: SRB cell viability assay, A549; format: cell-based, human; conditions: for IC50: Homo sapiens, A549, 72 h, read-out: IC50 A549; for Selectivity index A549: normal HSF versus A549
[1] = test system: normal human skin fibroblast cell line HSF; experiment: SRB cell viability assay, HSF normal cells; format: cell-based; conditions: 72 h, read-out: IC50 HSF
[2] = test system: MCF-7 breast cancer cell line; experiment: SRB cell viability assay, MCF-7; format: cell-based, human; conditions: for IC50: Homo sapiens, MCF7, 72 h, read-out: IC50 MCF-7; for Selectivity index MCF-7: normal HSF versus MCF-7
[3] = read-out: KI hCA I, 15 min preincubation, mean from 3 different assays
[4] = read-out: KI hCA II, 15 min preincubation, mean from 3 different assays
[5] = log of KI in nM, compounds of this paper
[6] = read-out: KI hCA XII, 15 min preincubation, mean from 3 different assays
[7] = read-out: KI hCA IX, 15 min preincubation, mean from 3 different assays
[8] = KI hCA XII, 15 min preincubation, mean from 3 different assays
[9] = Log KI hCA XII (experimental), log of KI in nM, compounds of this paper
[10] = KI hCA IX, 15 min preincubation, mean from 3 different assays
[11] = log KI hCA IX (experimental), log of KI in nM, compounds of this paper

Chain of hCA I (P00915 whole entry): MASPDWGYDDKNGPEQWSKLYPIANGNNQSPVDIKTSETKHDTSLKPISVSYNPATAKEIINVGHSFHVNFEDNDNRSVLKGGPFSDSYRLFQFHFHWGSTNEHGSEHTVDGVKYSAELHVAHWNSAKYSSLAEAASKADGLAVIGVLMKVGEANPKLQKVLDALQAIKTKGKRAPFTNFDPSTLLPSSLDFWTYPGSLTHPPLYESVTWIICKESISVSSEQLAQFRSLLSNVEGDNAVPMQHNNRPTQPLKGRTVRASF

| Compound | Selectivity ratio I/XII (hCA XII) | Selectivity ratio II/XII (hCA XII) | Selectivity ratio I/IX (hCA IX) | Selectivity ratio II/IX (hCA IX) | Ki (hCA I) [nM] | Ki (hCA II) [nM] | IC50 (A549 lung cancer cells) [nM] | IC50 [2] [nM] | Ki (hCA XII; [8]) [nM] | Ki (hCA XII; [9]) [nM] | Ki (hCA IX; [10]) [nM] | Ki (hCA IX; [11]) [nM] | IC50 [1] [nM] | also measured |
| --- | --- | --- | --- | --- | --- | --- | --- | --- | --- | --- | --- | --- | --- | --- |
| NS(=O)(=O)c1ccc(NC(=O)CN2C(=O)C(=O)c3ccccc32)cc1 [2h, 2–(2,3-Dioxoindolin-1-yl)-N-(4-sulfamoylphenyl)acetamide] | 5.701 | 0.742 | 0.673 | 0.087 | 45.1 | 5.87 | > 100000 | > 100000 | 7.91 | 8 | 67 | 67 | > 100000 | cytotoxic activity against A549 (A549 lung cancer cells): no cytotoxic activity; cytotoxic activity against MCF-7 [2]: no cytotoxic activity |
| NS(=O)(=O)c1ccc(NN=C2C(=O)N(CC(=O)Nc3ccccc3)c3ccccc32)cc1 [3a, 2–(2-Oxo-3–(2-(4-sulfamoylphenyl)hydrazono)indolin-1-yl)-N-phenylacetamide] | 1.088 | 0.071 | 18.384 | 1.203 | 3970 | 260 | – | – | 3650 | 3650 | 216 | 216 | – | – |
| NS(=O)(=O)c1ccc(NN=C2C(=O)N(CC(=O)Nc3ccc(Cl)cc3)c3ccccc32)cc1 [3b, N-(4-Chlorophenyl)-2–(2-oxo-3–(2-(4-sulfamoylphenyl)hydrazono)indolin-1-yl)acetamide] | 1.881 | 0.953 | 7.252 | 3.674 | 892 | 452 | – | – | 474 | 474 | 123 | 123 | – | – |
| NS(=O)(=O)c1ccc(NN=C2C(=O)N(CC(=O)Nc3ccc(Br)cc3)c3ccccc32)cc1 [3c, N-(4-Bromophenyl)-2–(2-oxo-3–(2-(4-sulfamoylphenyl)hydrazono)indolin-1-yl)acetamide] | 1.245 | 0.092 | 13.392 | 0.991 | 762 | 56.4 | 5900 | > 100000 | 612 | 612 | 56.9 | 57 | > 100000 | Selectivity index A549 (A549 lung cancer cells): > 16.94 |
| Cc1ccc(NC(=O)CN2C(=O)C(=NNc3ccc(S(N)(=O)=O)cc3)c3ccccc32)cc1 [3d, 2–(2-Oxo-3–(2-(4-sulfamoylphenyl)hydrazono)indolin-1-yl)-N-p-tolylacetamide] | 0.923 | 0.112 | 7.672 | 0.934 | 656 | 79.9 | 5120 | 869 | 710 | 710 | 85.5 | 86.1 | 1460 | Selectivity index A549 (A549 lung cancer cells): 0.28; Selectivity index MCF-7 [2]: 1.68 |
| NS(=O)(=O)c1ccc(NCC(=O)NN=C2C(=O)N(CC(=O)Nc3ccccc3)c3ccccc32)cc1 [4a, 2–(2-Oxo-3–(2-(2–(4-sulfamoylphenylamino)acetyl)hydrazono)indolin-1-yl)-N-phenylacetamide] | 0.683 | 0.118 | 5.741 | 0.995 | 4640 | 804 | – | – | 6790 | – | 808 | 807 | – | – |

Second part, led by results:

| Selectivity ratio I/XII (hCA XII) | Selectivity ratio II/XII (hCA XII) | Selectivity ratio I/IX (hCA IX) | Selectivity ratio II/IX (hCA IX) | Ki (hCA I) [nM] | Ki (hCA II) [nM] | IC50 (A549 lung cancer cells) [nM] | IC50 [2] [nM] | Ki (hCA XII; [8]) [nM] | Ki (hCA XII; [9]) [nM] | Ki (hCA IX; [10]) [nM] | Ki (hCA IX; [11]) [nM] | Compound | IC50 [1] [nM] | also measured |
| --- | --- | --- | --- | --- | --- | --- | --- | --- | --- | --- | --- | --- | --- | --- |
| 1.412 | 0.076 | 14.824 | 0.797 | – | – | – | – | – | – | – | – | 2–(2-Oxo-3–(2-(2–(4-sulfamoylphenylamino)acetyl)hydrazono)indolin-1-yl)-N-m-tolylacetamide [4d] | – | Ki (hCA I; [3]): 8510 nM; Ki (hCA II; [4]): 458 nM; Log KI hCA XII (experimental) (hCA XII; [5]): 3.78; Ki (hCA XII; [6]): 6020 nM; log KI hCA IX (experimental) (hCA IX; [5]): 2.759; Ki (hCA IX; [7]): 574 nM |
| 1.670 | 0.909 | 2.149 | 1.169 | 8430 | 4590 | – | – | 5050 | 5050 | 3920 | 3930 | NS(=O)(=O)c1ccc(NCC(=O)NN=C2C(=O)N(CC(=O)Nc3ccc(Cl)cc3)c3ccccc32)cc1 [4b, N-(4-Chlorophenyl)-2–(2-oxo-3–(2-(2–(4-sulfamoylphenylamino)acetyl)hydrazono)indolin-1-yl)acetamide] | – | – |
| 5.823 | 3.937 | 0.819 | 0.554 | 4390 | 2970 | – | – | 754 | 753 | 5360 | 5360 | NS(=O)(=O)c1ccc(NCC(=O)NN=C2C(=O)N(CC(=O)Nc3ccccc3Cl)c3ccccc32)cc1 [4f, N-(2-Chlorophenyl)-2–(2-oxo-3–(2-(2–(4-sulfamoylphenylamino)acetyl)hydrazono)indolin-1-yl)acetamide] | – | – |
| 7.221 | 2.373 | 0.829 | 0.272 | 6090 | 2000 | – | – | 843 | 843 | 7340 | 7330 | NS(=O)(=O)c1ccc(NCC(=O)NN=C2C(=O)N(CC(=O)Nc3ccccc3Br)c3ccccc32)cc1 [4g, N-(2-Bromophenyl)-2–(2-oxo-3–(2-(2–(4-sulfamoylphenylamino)acetyl)hydrazono)indolin-1-yl)acetamide] | – | – |
| – | – | – | – | – | – | 190 | 630 | – | – | – | – | COc1cccc2c1C(=O)c1c(O)c3c(c(O)c1C2=O)C[C@@](O)(C(=O)CO)C[C@@H]3O[C@H]1C[C@H](N)[C@H](O)[C@H](C)O1 [Doxorubicin, reference compound] | 220 | Selectivity index A549 (A549 lung cancer cells): 1.157; Selectivity index MCF-7 [2]: 0.349 |
| 1.029 | 0.320 | 3.596 | 1.119 | – | – | – | – | – | – | – | – | N-(3-Bromophenyl)-2–(2-oxo-3–(2-(2–(4-sulfamoylphenylamino)acetyl)hydrazono) indolin-1-yl)acetamide [4c] | – | Ki (hCA I; [3]): 2350 nM; Ki (hCA II; [4]): 732 nM; Log KI hCA XII (experimental) (hCA XII; [5]): 3.359; Ki (hCA XII; [6]): 2280 nM; log KI hCA IX (experimental) (hCA IX; [5]): 2.816; Ki (hCA IX; [7]): 654 nM |
| 6.122 | 4.416 | 2.957 | 2.133 | – | – | – | – | – | – | – | – | N-(3-Methoxyphenyl)-2–(2-oxo-3–(2-(2–(4-sulfamoylphenylamino)acetyl) hydrazono)indolin-1-yl)acetamide [4e] | – | Ki (hCA I; [3]): 9320 nM; Ki (hCA II; [4]): 6720 nM; Log KI hCA XII (experimental) (hCA XII; [5]): 3.182; Ki (hCA XII; [6]): 1520 nM; log KI hCA IX (experimental) (hCA IX; [5]): 3.498; Ki (hCA IX; [7]): 3150 nM |
